For 26 compounds, inhibition and inhibition in vivo results are on record in US5066658A, “Substituted hydroxyureas” (Ortho Pharmaceutical Corporation, priority 1990, dated 1991).

The target in one test is T1, 5-lipoxygenase (Rattus norvegicus, UniProt P12527).
T1 construct: The cell-free homogenate was prepared by sonication of the cells followed by centrifugation at 40,000 xg; endogenous in cells; host or cells: RBL-1 (rat basophilic leukemia) cells, 40,000 xg supernatant of the sonicate
T1 sequence (P12527 1-673): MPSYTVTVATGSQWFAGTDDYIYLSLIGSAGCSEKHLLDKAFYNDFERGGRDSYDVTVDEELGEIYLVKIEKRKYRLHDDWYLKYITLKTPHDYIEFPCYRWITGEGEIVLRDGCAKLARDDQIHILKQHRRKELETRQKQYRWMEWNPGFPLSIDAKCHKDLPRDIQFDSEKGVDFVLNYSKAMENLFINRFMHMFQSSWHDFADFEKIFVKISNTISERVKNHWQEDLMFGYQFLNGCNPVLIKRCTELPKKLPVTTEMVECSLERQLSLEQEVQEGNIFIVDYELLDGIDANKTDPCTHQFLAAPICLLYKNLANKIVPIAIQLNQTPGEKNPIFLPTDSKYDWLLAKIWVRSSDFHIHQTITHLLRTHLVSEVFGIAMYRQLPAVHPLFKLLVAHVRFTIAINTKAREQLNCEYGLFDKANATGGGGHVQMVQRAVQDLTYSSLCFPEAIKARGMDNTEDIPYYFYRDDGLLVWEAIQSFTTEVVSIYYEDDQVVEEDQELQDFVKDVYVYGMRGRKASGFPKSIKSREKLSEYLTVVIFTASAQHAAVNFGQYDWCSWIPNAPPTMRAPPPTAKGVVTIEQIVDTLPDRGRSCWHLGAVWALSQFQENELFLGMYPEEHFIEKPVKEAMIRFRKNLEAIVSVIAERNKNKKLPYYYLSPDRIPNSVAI
Put plainly: Inhibition of 5-lipoxygenase in cell-free homogenate of rat basophilic leukemia (RBL-1) cells. Format: biochemical. Conditions: 3 μM; RBL-1 cell-free homogenate; read-out: Inhibition of 5-Lipoxygenase, % Inh. @ 3 μM. The protocol: The inhibition of 5-lipoxygenase was tested in a cell-free homogenate by the procedure of B. Jakschik et al., Biochem.Biophys.Res.Comm. 95, 103 (1980). Basically, rat basophilic leukemia cells (RBL-1 cells) were maintained in culture in a suitable medium, and were collected by centrifugation prior to assay. The cell-free homogenate was prepared by sonication of the cells followed by centrifugation at 40,000 xg. The CaCl2 dependent production of lipoxygenase products from ^14 C-arachidonic acid in the 40,000 xg supernatant was monitored in the presence of buffer (or other vehicle) or drug. Products were isolated by acidification and extraction, followed by thin layer chromatography. Radioactive areas corresponding to the authentic lipoxygenase products were quantitated by liquid scintillation counting. Data was reported as the IC50, the concentration causing 50% inhibition of the generation of lipoxygenase products. The results are shown it Table I as the percent inhibition at 3 μM or the amount of compound necessary to cause 50% inhibition.

For test [1], the system named is Arachidonate-Induced Bronchospasm (lipoxygenase). Put plainly: Pulmonary Mechanics Assay: arachidonate-induced bronchospasm with indomethacin (SRS-A response, indicative of lipoxygenase inhibition). Conditions: Cavia porcellus, guinea pig. Format: in vivo, male Hartley guinea pigs. As for the experimental part:
(§1) The bronchodilating activity of the compounds was tested in a pulmonary mechanics assay. Basically, male Hartley guinea pigs (about 400-500 g) were anesthetized with urethane (2 g/kg, i.p.) and placed in a whole body Plethysmograph. Cannulations of a jugular vein and carotid artery were performed for compound administration and monitoring blood pressure, respectively. The trachea was cannulated for respiration at a constate volume via a miniature starling pump. A Validyne differential pressure transducer (±20 cm H2 O) sensed transpleural pressure via a 15 gauge needle inserted into the pleural cavity and a sidearm from the tracheal cannula. Tidal volume was sensed by another Validyne differential pressure transducer (±2 cm H2 O) from pressure changes inside the plethysmograph. An on-line Buxco pulmonary mechanics computer calculated air flow, dynamic lung compliance and lung resistance. The values were recorded on a print-out.
(§2) The guinea pigs were pretreated with succinyl choline (1.2 mg/kg, i.v.) to arrest spontaneous respiration. A control challenge of arachidonic acid (0.5-1.0 mg/kg, i.v.) was administered, and the animals were then dosed with the test compound by various routes. At least 10 minutes were allowed to expire between arachidonic acid challenges. A second challenge was given and compared to the control response. This comparison was indicative of cyclooxygenase inhibition. Indomethacin (10 mg/kg, i.v.) was administered immediately after the second challenge. A third challenge of a higher dose of arachidonic acid (5-10 mg/kg, i.v.) was given. This response was induced by SRS-A and compared to the responses elicited by a separate control group of animals. Activity was indicative of lipoxygenase inhibition. Propranolol (0.005 mg/kg. i.v.) may be given prior to the third challenge to enhance the response to SRS-A.
(§3) Bronchoconstriction induced by arachidonic acid with or without indomethacin was expressed as maximum percent change in dynamic lung compliance (Cdyn) and maximum percent increase in lung resistance (RL). Each guinea pig served as its own control for cyclooxygenase evaluation. The results are shown in Table I and are expressed as the percent inhibition of control.

Test [2] has as its system Arachidonate-Induced Bronchospasm (cyclooxygenase). Put plainly: Pulmonary Mechanics Assay: arachidonate-induced bronchospasm without indomethacin (indicative of cyclooxygenase inhibition). Format: in vivo, male Hartley guinea pigs. As to conditions: Cavia porcellus, guinea pig. As for the experimental part: as §1, §2, §3
Setting [3] is: ID dosing, read-out: Inhibition of Arachidonate-Induced Bronchospasm (ID Dosing), % Inh. with Indomethacin.
Where [4] appears, read: ID dosing, read-out: Inhibition of Arachidonate-Induced Bronchospasm (ID Dosing), % Inh. without Indomethacin.

For the compound `COc1ccc(OC)c(CCNC(=O)N(C)O)c1` [Example 47, N-[2-(2,5-Dimethoxyphenyl)ethyl]-N'-hydroxy-N'-methylurea], the inhibition (in general, the percentage by which the read-out fell short of the control) at 3 µM on 5-lipoxygenase was determined as 56%.
On the same count and under the same terms, the same measure for `CN(O)C(=O)NCCc1ccc2c(c1)OCCO2` [Example 46, N-[2-(Benzo-1,4-dioxan-6-yl)ethyl]-N'-hydroxy-N'-methylurea]: 42%; for `COc1ccc(CNC(=O)N(C)O)cc1OC` [Example 42, N-[(3,4-Dimethoxyphenyl)methyl]-N'-hydroxy-N'-methylurea]: 28%.
For the compound `COc1ccc(CCN(C)C(=O)N(C)O)cc1OC` [Example 53, N-[2-(3,4-Dimethyoxyphenyl)ethyl]-N'-hydroxy-N,N'-dimethylurea], on 5-lipoxygenase, the inhibition at 3 µM stood at 0%. For the same compound, the inhibition in vivo at 25 mg/kg in test [1] (ID dosing, 25 mg/kg, read-out: Inhibition of Arachidonate-Induced Bronchospasm (ID Dosing), % Inh. with Indomethacin) was 71%; in test [2] (ID dosing, 25 mg/kg, read-out: Inhibition of Arachidonate-Induced Bronchospasm (ID Dosing), % Inh. without Indomethacin), 52%. In addition, the inhibition in vivo at 15 mg/kg in test [1] (IV dosing, 15 mg/kg, read-out: Inhibition of Arachidonate-Induced Bronchospasm (IV Dosing), % Inh. with Indomethacin) came out at 51%; in test [2] (IV dosing, 15 mg/kg, read-out: Inhibition of Arachidonate-Induced Bronchospasm (IV Dosing), % Inh. without Indomethacin), 79%.
As for `COc1ccc(CCN(CC(C)C)C(=O)N(C)O)cc1OC` [Example 64, N-[2-(3,4-Dimethoxyphenyl)ethyl]-N'-hydroxy-N'-methyl-N-(2-methylpropyl)urea], the inhibition at 3 µM at 5-lipoxygenase was 33%.
As to `CN(O)C(=O)NCCCCOc1ccc(-c2ccccc2)cc1` [Example 35, N-[4-([1,1'-Biphenyl]-4-yloxy)butyl]N'-hydroxy-N'-methylurea], the inhibition at 3 µM at 5-lipoxygenase came to 79%. Besides, the inhibition in vivo at 50 mg/kg is 33% in test [1] (setting [3]) and under 20% in test [2] (setting [4]).
On to `COc1ccc(CCNC(=O)N(C)O)cc1O` [Example 71, N-[2-(3-Hydroxy-4-methoxyphenyl)ethyl]-N'-hydroxy-N'-methylurea], for which the inhibition at 3 µM on 5-lipoxygenase turned out to be 5%. The inhibition in vivo at 50 mg/kg was under 20% in test [1] (setting [3]) and 77% in test [2] (setting [4]).
As for `C=CCCCCCCCCNC(=O)N(C)O` [Example 18, N-(9-Decenyl)-N'-methyl-N'-hydroxyurea], the inhibition at 3 µM at 5-lipoxygenase is 94%.
With `CN(O)C(=O)NCCOc1ccc(-c2ccccc2)cc1` [Example 33, N-[2-([1,1'-biphenyl]-4-yloxy)ethyl]N'-hydroxy-N'-methylurea], the inhibition at 3 µM at 5-lipoxygenase is 70%. Also, the inhibition in vivo at 50 mg/kg in test [1] (setting [3]) is 28%; in test [2] (setting [4]), under 20%.
On to `CCCCCCCCCCC1CN(C)C(=O)N(O)C1` (stereo not drawn) [Example 29, 5-Decyl-1-hydroxy-3-methyl-3,4,5,6-tetrahydro-lH-pyrimidin-2-one], for which the inhibition at 3 µM at 5-lipoxygenase came to 30%.
As to `COc1ccc(CCNC(=O)NO)cc1OC` [Example 72, N-[2-(3,4-Dimethoxyphenyl)ethyl]-N'-hydroxyurea], the inhibition at 3 µM on 5-lipoxygenase is 21%. The inhibition in vivo at 50 mg/kg in test [1] (setting [3]) was 56%; in test [2] (setting [4]), 50%.
Turning to `COc1cc2c(cc1OC)CC(NC(=O)N(C)O)C2` [Example 57, N-(5,6-Dimethoxyindan-2-yl)-N'-hydroxy-N'-methylurea], the inhibition at 3 µM at 5-lipoxygenase worked out at 55%.
As for `CN(O)C(=O)NCCCOc1ccc(-c2ccccc2)cc1` [Example 34, N-[3-([l,l'biphenyl]-4-yloxy)propyl]N'hydroxy N'methylurea], the inhibition at 3 µM at 5-lipoxygenase was determined as 93%. Also, the figures for the inhibition in vivo at 50 mg/kg in test [1] (setting [3]) and in test [2] (setting [4]) were 34% and -74%, respectively.
In the same order, the values of `CN(O)C(=O)NCCc1ccc2c(c1)OCO2` [Example 43, N-[2-(3,4-Methylenedioxy)phenyl)ethyl-N'-hydroxy-N'-methylurea] are 65%, under 20% and under 20%.
Turning to `CN(O)C(=O)N1CCC(C(c2ccccc2)c2ccccc2)CC1` [Example 75, 4-(Diphenylmethyl)-N-hydroxy-N-methylpiperidine-1-carboxamide], the inhibition at 3 µM at 5-lipoxygenase came to 44%.
On to `CCCCCCN(O)C(=O)N(C)C` [Example 10, N,N-Dimethyl-N'-hexyl-N'-hydroxyurea], for which the inhibition at 3 µM on 5-lipoxygenase came out at 100%.
Still for that read-out and setting: the same measure for `C=CCCCCCCCCC(O)CNC(=O)N(C)O` (stereo not drawn) [Example 21, N-(2-Hydroxy-11-dodecenyl)-N'-methyl-N'-hydroxyurea]: 22%.
The same measure, in the same setting: the same measure for `COc1ccc(CCN(C(=O)N(C)O)c2ccc(Cl)cc2)cc1OC` [Example 67, N-[2-(3,4-Dimethyloxyphenyl)ethyl]-N-(4-chlorophenyl)-N'-methyl-N'-hydroxyurea]: 48%; for `CCOC(=O)CCCN(O)C(=O)NCCc1ccc(OC)c(OC)c1` [Example 74, N-[2-(3,4-Dimethoxyphenyl)ethyl]-N'-[3-(ethoxycarbonyl)propyl]-N'-hydroxyurea]: 42%; for `CN(O)C(=O)NCCc1cccc(Oc2ccccc2)c1` [Example 76, N-Hydroxy-N-methyl-N'-[2-(3-phenoxyphenyl)ethyl]urea]: 66%.
Regarding `CCCCC/C=C\C/C=C\C/C=C\C/C=C\CCCNC(=O)N(C)O` [Example 22, N-(4,7,10,13-Nonadecatetraenyl)-N'-methyl-N'-hydroxyurea], the inhibition at 3 µM on 5-lipoxygenase amounted to 71%.
The same measure, in the same setting: for `COc1ccc(CC(C)NC(=O)N(C)O)cc1OC` (stereo not drawn) [Example 54, N-[2-(3,4-Dimethoxyphenyl)-1-methylethyl]-N'-hydroxy-N'-methylurea] the value was 8%; for `COc1cccc(C2CCCN(C(=O)N(C)O)C2)c1` (stereo not drawn) [Example 73, N-Hydroxy-3-(3-methoxyphenyl)-N-methylpiperidine-1-carboxamide], 46%.
On the same count and under the same terms, the same measure for `COc1ccc(C2C3CCC(C3)C2NC(=O)N(C)O)cc1OC` (stereo not drawn) [Example 59, N-[trans-3-(3,4-Dimethoxyphenyl)bicyclo[2.2.1]-heptan-2-yl]-N '-hydroxy-N'-methylurea]: 39%.
On the same count and under the same terms, for `COc1cc(CCNC(=O)N(C)O)cc(OC)c1OC` [Example 45, N-[2-(3,4,5-Trimethoxyphenyl)ethyl]-N'-hydroxy-N'-methylurea] the value was 36%; for `COc1cc(CCNC(=O)N(C)O)cc(OC)c1` [Example 48, N-[2-(3,5-Dimethoxyphenyl)ethyl]-N'-hydroxy-N'-methylurea], 42%.
